Measured values published in patent US20240197650A1, “Combination of Cinnamaldheyde and Eugenol with Antimycotic Activity” (priority 2021, published 2024).

System: C. albicans strain (C.a. 15)
Test: Time-kill curve
Type: cell-based
Conditions: oil at its MFC, 2×10^5 CFU/ml C.a. 15, 35° C.
Experimental: A C. albicans strain (C.a. 15) was incubated with cinnamaldheyde and eugenol at their MFC. The C. albicans colonies were suspended in Sabouraud broth at a density corresponding to #1.4 McFarland (4×10^6 CFU/ml), then diluted 1/10 (4×10^5 CFU/ml, for a final concentration of 2×10^5 CFU/ml). The suspension was divided into aliquots, two aliquots were incubated with the oils (½ v/v) prepared at a concentration double of their MFC (for a final concentration equal to MFC); the third aliquot was diluted ½ with Sabouraud broth and was used as negative control. The mixtures were incubated at 35° C. on swinging plate. At T0, T1 h, T2 h, T4 h, T6 h, T8 h, T12 h and T24 h, 1/10 serial dilutions were carried out, to determine the total vital count (TVC). From each dilution, 100 μl were seeded in PDA and incubated at 35° C. for 24 hours, then the colonies were counted, their number expressed as CFU/ml. The test was carried out in duplicate.

C=CCc1ccc(O)c(OC)c1 [Eugenol, eugenol]
time to kill all the fungal cells: within the first hour | time to kill all the fungal cells (listed as eugenol): 1 h
